Reference: ChEMBL document CHEMBL5252582, “Glyclauxins A-E: Dimeric Oxaphenalenone Aminoglycosides from an Australian Wasp Nest-Derived Fungus Talaromyces sp. CMB-MW102” (J Nat Prod, 2023)
pIC50: −log10 of the molar value.

What was measured:
Escherichia coli = assay: Antibacterial activity against gram negative Escherichia coli ATCC11775 assessed as bacterial growth inhibition incubated for 24 hrs by spectrophotometric analysis; format: functional, organism-based; details: ATCC11775, 24 h
Candida albicans = assay: Antifungal activity against Candida albicans ATCC10231 assessed as fungal growth inhibition incubated for 24 hrs by spectrophotometric analysis; format: functional, organism-based; details: ATCC10231, 24 h
SW-620 = assay: Cytotoxicity against human SW620 cells assessed as cell growth inhibition incubated for 48 hrs by MTT assay; format: functional, cell-based; details: SW-620, 48 h
NCI-H460 = assay: Cytotoxicity against human NCI-H460 cells assessed as cell growth inhibition incubated for 48 hrs by MTT assay; format: functional, cell-based; details: NCI-H460, 48 h
Staphylococcus aureus = assay: Antibacterial activity against gram positive Staphylococcus aureus ATCC25923 assessed as bacterial growth inhibition incubated for 24 hrs by spectrophotometric analysis; format: functional, organism-based; details: ATCC25923, 24 h

Measured: pIC50

CO[C@@]12c3c(C)cc(O)c4c(=O)n([C@H]5CO[C@H](CO)[C@@H](O)[C@@H]5O)cc(c34)C(=O)[C@@H]1[C@]13COC(=O)c4c(O)cc(C)c(c41)C(=O)[C@H]2[C@@H]3OC(C)=O
< 4.52: Escherichia coli | Candida albicans | SW-620 | NCI-H460 | Staphylococcus aureus

CO[C@@]12c3c(C)cc(O)c4c(=O)occ(c34)C(=O)[C@@H]1[C@]13COC(=O)c4c(O)cc(C)c(c41)C(=O)C2[C@@H]3OC(C)=O
< 4.52: Escherichia coli | Candida albicans | SW-620 | NCI-H460 | Staphylococcus aureus

CC(=O)O[C@H]1[C@@H]2C(=O)c3c(C)cc(O)c4c3[C@@]1(COC4=O)C1=C2c2c(C)cc(O)c3c(=O)n([C@H]4CO[C@H](CO)[C@@H](O)[C@@H]4O)cc(c23)C1=O
< 4.52: Escherichia coli | Candida albicans | SW-620 | NCI-H460 | Staphylococcus aureus

CO[C@@]12c3c(C)cc(O)c4c(=O)n([C@H]5CO[C@H](CO)[C@@H](O)[C@@H]5O)cc(c34)C(=O)[C@@H]1[C@]13COC(=O)c4c(O)cc(C)c(c41)C(=O)[C@H]2[C@@H]3O
< 4.52: Escherichia coli | Candida albicans | SW-620 | NCI-H460 | Staphylococcus aureus

CC(=O)OC[C@H]1OC[C@H](n2cc3c4c(c(C)cc(O)c4c2=O)C2=C(C3=O)[C@]34COC(=O)c5c(O)cc(C)c(c53)C(=O)[C@H]2[C@@H]4OC(C)=O)[C@@H](O)[C@@H]1O
< 4.52: Escherichia coli | Candida albicans | SW-620 | NCI-H460 | Staphylococcus aureus

Cc1cc(O)c2c3c1C(=O)[C@@H]1C4=C(C(=O)c5cn([C@H]6CO[C@H](CO)[C@@H](O)[C@@H]6O)c(=O)c6c(O)cc(C)c4c56)[C@@]3(COC2=O)[C@H]1O
< 4.52: Escherichia coli | Candida albicans | SW-620 | NCI-H460 | Staphylococcus aureus
